Experimental data from patent US4308380A, “2-Lower alkyl-2 or 3-cephem-4-carboxylic acid derivatives” (Fujisawa Pharmaceutical Co., Ltd., priority 1973, dated 1981).
≈ marks a conversion by molar mass, not a printed value. Counter-ions that a name gives are not always drawn. Like-named read-outs stand apart in the source and are kept apart here.

How the values were obtained:
Assay type in all cases: cell-based
[1] = test system: Staphylococcus aureus 209 P JC-1; assay: in vitro antimicrobial activity, two-fold agar-plate dilution method, S. aureus 209 P JC-1
Experimental: (§1) In vitro antimicrobial activity was determined by the two-fold agar-plate dilution method as described below.
(§2) One loopful of an overnight culture of each test strain in Trypticase-soy broth (10^8 viable cells per ml) was streaked on heart infusion agar (HI-agar) containing graded concentration of antibiotics, and the minimum inhibitory concentration (MIC) was expressed in terms of meg/ml after incubation at 37° C. for 20 hours.
(§3) The data in Table 1 below present a comparison between the 2-(C1 -C6 alkyl)-cephem compounds of the present invention and known cephem compounds structurally analogous to the present compounds, differing only by alkyl substitution in the 3-position. The in vitro tests of antimicrobial activity of the compared compounds were determined by the two-fold agar plate dilution method described as follows:
(§4) One loopful of an overnight culture of each test strain in Trypticase-soy broth (10^8 viable cells per ml) was streaked on heart infusion agar (HI sugar) containing graded concentration of antibiotics, and the minimum inhibitory concentration (MIC) was expressed in terms of mcg/ml after incubation at 37° C. for 20 hours.

[2] = test system: Staphylococcus aureus 206; assay: in vitro antimicrobial activity, two-fold agar plate dilution method, S. aureus 206; conditions: Table 1, S. aureus 206, 37° C., 20 hours, read-out: minimum inhibitory concentration (MIC)
Experimental: (§5) The in vitro tests of antimicrobial activity of the compared compounds were determined by the two-fold agar plate dilution method described as follows: […]

[3] = test system: Staphylococcus aureus 213; assay: in vitro antimicrobial activity, two-fold agar plate dilution method, S. aureus 213; conditions: Table 1, S. aureus 213, 37° C., 20 hours, read-out: minimum inhibitory concentration (MIC)
Experimental: as §5

[4] = test system: Staphylococcus aureus 226; assay: in vitro antimicrobial activity, two-fold agar plate dilution method, S. aureus 226; conditions: Table 1, S. aureus 226, 37° C., 20 hours, read-out: minimum inhibitory concentration (MIC)
Experimental: as §5

[5] = test system: Staphylococcus aureus 277; assay: in vitro antimicrobial activity, two-fold agar plate dilution method, S. aureus 277; conditions: Table 1, S. aureus 277, 37° C., 20 hours, read-out: minimum inhibitory concentration (MIC)
Experimental: as §5

[6] = test system: Staphylococcus aureus 278; assay: in vitro antimicrobial activity, two-fold agar plate dilution method, S. aureus 278; conditions: Table 1, S. aureus 278, 37° C., 20 hours, read-out: minimum inhibitory concentration (MIC)
Experimental: as §5

[7] = test system: Bacillus subtilis ATCC-6633; assay: in vitro antimicrobial activity, two-fold agar-plate dilution method, B. subtilis ATCC-6633
Experimental: as §1, §2, §3, §4

[8] = 209PJC1, Table 1, S. aureus 209 P JC-1, 37° C., 20 hours, read-out: minimum inhibitory concentration (MIC)
[9] = ATCC6633, Table 1, B. subtilis ATCC-6633, 37° C., 20 hours, read-out: minimum inhibitory concentration (MIC)
[10] = S. aureus 209-P JC-1, 37° C., 20 hours, HI-agar, read-out: MIC
[11] = ATCC6633, B. subtilis ATCC-6633, 37° C., 20 hours, HI-agar, read-out: MIC

SMILES | MIC ([1]; 209PJC1, 20 h, read-out: minimum inhibitory concentration (MIC)) [µg/mL] | MIC [2] [µg/mL] | MIC [3] [µg/mL] | MIC [4] [µg/mL] | MIC [5] [µg/mL] | MIC [6] [µg/mL] | MIC ([7]; ATCC6633, 20 h, read-out: minimum inhibitory concentration (MIC)) [µg/mL] | MIC [1, 8] [µg/mL] | MIC [7, 9] [µg/mL] | MIC [1, 10] [µg/mL] | MIC [7, 11] [µg/mL]
CC1=C(C(=O)O)N2C(=O)C(NC(=O)Cc3ccccc3)[C@H]2SC1 (some centres unmarked) [cited compound (8), 3-Methyl-7-(2-phenylacetamido)-3-cephem-4-carboxylic acid, reference compound] | 1.56 (≈ 4.69 µM) | 6.25 (≈ 18.8 µM) | 6.25 (≈ 18.8 µM) | 3.13 (≈ 9.42 µM) | 1.56 (≈ 4.69 µM) | 3.13 (≈ 9.42 µM) | 0.78 (≈ 2.35 µM) | – | – | – | –
CC1=C(C(=O)O)N2C(=O)C(NC(=O)Cc3cccnc3)[C@H]2SC1 (some centres unmarked) [cited compound (15), 3-Methyl-7-[2-(3-pyridyl)acetamido]-3-cephem-4-carboxylic acid, reference compound] | – | 12.5 (≈ 37.5 µM) | 25 (≈ 75 µM) | 12.5 (≈ 37.5 µM) | 6.25 (≈ 18.7 µM) | 12.5 (≈ 37.5 µM) | – | 6.25 (≈ 18.7 µM) | 1.56 (≈ 4.68 µM) | – | –
CC1C=C(C(=O)O)N2C(=O)C(NC(=O)Cc3ccccc3)[C@H]2S1 (some centres unmarked) [Applicants' compound (8), 2-Methyl-7-(2-phenylacetamido)-3-cephem-4-carboxylic acid] | – | 1.56 (≈ 4.69 µM) | 1.56 (≈ 4.69 µM) | 1.56 (≈ 4.69 µM) | 3.13 (≈ 9.42 µM) | 1.56 (≈ 4.69 µM) | – | 0.78 (≈ 2.35 µM) | 0.2 (≈ 0.602 µM) | 0.78 (≈ 2.35 µM) | 0.2 (≈ 0.602 µM)
CC1=C(C(=O)O)N2C(=O)C(NC(=O)C(O)c3cccs3)C2SC1 (centres unmarked) [cited compound (2), 3-Methyl-7-[2-hydroxy-2-(2-thienyl)acetamido]-3-cephem-4-carboxylic acid (sodium salt), reference compound] | – | 6.25 | 25 | 12.5 | 12.5 | 12.5 | – | 6.25 | 1.56 | – | –
CC1C=C(C(=O)O)N2C(=O)C(NC(=O)Cc3cccc(Cl)c3)[C@H]2S1 (some centres unmarked) [Applicants' compound (6), 2-Methyl-7-[2-(3-chlorophenyl)acetamido]-3-cephem-4-carboxylic acid] | – | 0.39 (≈ 1.06 µM) | 0.3 (≈ 0.818 µM) | 0.2 (≈ 0.545 µM) | 0.78 (≈ 2.13 µM) | 0.39 (≈ 1.06 µM) | – | 0.1 (≈ 0.273 µM) | 0.2 (≈ 0.545 µM) | 0.1 (≈ 0.273 µM) | 0.2 (≈ 0.545 µM)
C=CCSCC(=O)NC1C(=O)N2C(C(=O)O)=C(C)CS[C@H]12 (some centres unmarked) [cited compound (14), 3-Methyl-7-[2-(allylthio)acetamido]-3-cephem-4-carboxylic acid, reference compound] | – | 6.25 (≈ 19 µM) | 12.5 (≈ 38.1 µM) | 6.25 (≈ 19 µM) | 6.25 (≈ 19 µM) | 6.25 (≈ 19 µM) | – | 6.25 (≈ 19 µM) | 3.13 (≈ 9.53 µM) | – | –
CSc1ccc(C(N)C(=O)NC2C(=O)N3C(C(=O)O)=CC(C)S[C@H]23)cc1 (some centres unmarked) [Applicants' compound (16), 2-Methyl-7-[2-amino-2-(4-methylthiophenyl)acetamido]-3-cephem-4-carboxylicacid] | – | 6.25 (≈ 15.9 µM) | 25 (≈ 63.5 µM) | 6.25 (≈ 15.9 µM) | 25 (≈ 63.5 µM) | 12.5 (≈ 31.8 µM) | – | 3.13 (≈ 7.95 µM) | 6.25 (≈ 15.9 µM) | 3.13 (≈ 7.95 µM) | 6.25 (≈ 15.9 µM)
CC1C=C(C(=O)O)N2C(=O)C(NC(=O)C(NC(=O)CSc3nncs3)c3ccccc3)[C@H]2S1 (some centres unmarked) [Applicants' compound (1), 2-Methyl-7-[N-[2-(1,3,4-thiadiazol-2-ylthio)acetyl]phenylglycyl]amino-3-cephem-4-carboxylic acid] | – | 3.13 (≈ 6.19 µM) | 3.13 (≈ 6.19 µM) | 1.56 (≈ 3.09 µM) | 12.5 (≈ 24.7 µM) | 3.13 (≈ 6.19 µM) | – | 1.56 (≈ 3.09 µM) | 3.13 (≈ 6.19 µM) | 1.56 (≈ 3.09 µM) | 3.13 (≈ 6.19 µM)
CC1C=C(C(=O)O)N2C(=O)C(NC(=O)CC#N)[C@H]2S1 (some centres unmarked) [Applicants' compound (13), 2-Methyl-7-(2-cyanoacetamido)-3-cephem-4-carboxylic acid] | – | 6.25 (≈ 22.2 µM) | 12.5 (≈ 44.4 µM) | 6.25 (≈ 22.2 µM) | 3.13 (≈ 11.1 µM) | 6.25 (≈ 22.2 µM) | – | 3.13 (≈ 11.1 µM) | 3.13 (≈ 11.1 µM) | 3.13 (≈ 11.1 µM) | 3.13 (≈ 11.1 µM)
CC1=C(C(=O)O)N2C(=O)C(NC(=O)C(OC(=O)c3ccncc3)c3ccccc3)C2SC1 (centres unmarked) [cited compound (4), reference compound] | – | 12.5 (≈ 27.6 µM) | 12.5 (≈ 27.6 µM) | 12.5 (≈ 27.6 µM) | 12.5 (≈ 27.6 µM) | 12.5 (≈ 27.6 µM) | – | 1.56 (≈ 3.44 µM) | 0.78 (≈ 1.72 µM) | – | –
CC1=C(C(=O)O)N2C(=O)C(NC(=O)CSc3ccccc3)C2SC1 (centres unmarked) [cited compound (9), 3-Methyl-7-(2-phenylthioacetamido)-3-cephem-4-carboxylic acid, reference compound] | – | 0.39 (≈ 1.07 µM) | 0.78 (≈ 2.14 µM) | 1.56 (≈ 4.28 µM) | 0.39 (≈ 1.07 µM) | 0.39 (≈ 1.07 µM) | – | 0.39 (≈ 1.07 µM) | 0.39 (≈ 1.07 µM) | – | –
CC1C=C(C(=O)O)N2C(=O)C(NC(=O)CSc3ccccc3)C2S1 (centres unmarked) [Applicants' compound (9), 2-Methyl-7-(2-phenylthioacetamido)-3-cephem-4-carboxylic acid] | – | 0.39 (≈ 1.07 µM) | 0.39 (≈ 1.07 µM) | 0.39 (≈ 1.07 µM) | 1.56 (≈ 4.28 µM) | 0.78 (≈ 2.14 µM) | – | 0.2 (≈ 0.549 µM) | 0.2 (≈ 0.549 µM) | 0.2 (≈ 0.549 µM) | 0.2 (≈ 0.549 µM)
CC1C=C(C(=O)O)N2C(=O)C(NC(=O)Cc3cccs3)[C@H]2S1 (some centres unmarked) [Applicants' compound (5), 2-Methyl-7-[2-(2-thienyl)acetamido]-3-cephem-4-carboxylic acid] | – | 1.56 (≈ 4.61 µM) | 1.56 (≈ 4.61 µM) | 1.56 (≈ 4.61 µM) | 1.56 (≈ 4.61 µM) | 1.56 (≈ 4.61 µM) | – | 0.78 (≈ 2.3 µM) | 0.39 (≈ 1.15 µM) | 0.78 (≈ 2.3 µM) | 0.39 (≈ 1.15 µM)
CC1C=C(C(=O)O)N2C(=O)C(NC(=O)Cc3csc(N)n3)[C@H]2S1 (some centres unmarked) [Applicants' compound (17), 2-Methyl-7-[2-(2-aminothiazol-4-yl)acetamido]-3-cephem-4-carboxylic acid] | – | 3.13 (≈ 8.83 µM) | 1.56 (≈ 4.4 µM) | 1.56 (≈ 4.4 µM) | 1.56 (≈ 4.4 µM) | 1.56 (≈ 4.4 µM) | – | 1.56 (≈ 4.4 µM) | 3.13 (≈ 8.83 µM) | – | –
CC1=C(C(=O)O)N2C(=O)C(NC(=O)CSc3nncs3)[C@H]2SC1 (some centres unmarked) [cited compound (11), 3-Methyl-7-[2-(1,3,4-thiadiazol-2-ylthio)acetamido]-3-cephem-4-carboxylic acid, reference compound] | – | 3.13 (≈ 8.4 µM) | 6.25 (≈ 16.8 µM) | 6.25 (≈ 16.8 µM) | 6.25 (≈ 16.8 µM) | 3.13 (≈ 8.4 µM) | – | 3.13 (≈ 8.4 µM) | 1.56 (≈ 4.19 µM) | – | –
CC1C=C(C(=O)O)N2C(=O)C(NC(=O)CSc3nncs3)[C@H]2S1 (some centres unmarked) [Applicants' compound (11), 2-Methyl-7-[2-(1,3,4-thiadiazol-2-ylthio)acetamido]-3-cephem-4-carboxylic acid] | – | 3.13 (≈ 8.4 µM) | 6.25 (≈ 16.8 µM) | 3.13 (≈ 8.4 µM) | 3.13 (≈ 8.4 µM) | 6.25 (≈ 16.8 µM) | – | 1.56 (≈ 4.19 µM) | 0.78 (≈ 2.09 µM) | 1.56 (≈ 4.19 µM) | 0.78 (≈ 2.09 µM)
